{"source": "patent US20110288084A1", "about": "“[4-( 1-AMINO-ETHYL) - CYCLOHEXYL ] - METHYL - AMINES AS ANTIBACTERIALS” (ASTRAZENECA AB, priority 2008, published 2011)", "data": [{"target": "Escherichia coli ParC/ParE tetramer protein (Escherichia coli, UniProt P0AFI2+P20083)", "sequence (P20083 whole entry)": "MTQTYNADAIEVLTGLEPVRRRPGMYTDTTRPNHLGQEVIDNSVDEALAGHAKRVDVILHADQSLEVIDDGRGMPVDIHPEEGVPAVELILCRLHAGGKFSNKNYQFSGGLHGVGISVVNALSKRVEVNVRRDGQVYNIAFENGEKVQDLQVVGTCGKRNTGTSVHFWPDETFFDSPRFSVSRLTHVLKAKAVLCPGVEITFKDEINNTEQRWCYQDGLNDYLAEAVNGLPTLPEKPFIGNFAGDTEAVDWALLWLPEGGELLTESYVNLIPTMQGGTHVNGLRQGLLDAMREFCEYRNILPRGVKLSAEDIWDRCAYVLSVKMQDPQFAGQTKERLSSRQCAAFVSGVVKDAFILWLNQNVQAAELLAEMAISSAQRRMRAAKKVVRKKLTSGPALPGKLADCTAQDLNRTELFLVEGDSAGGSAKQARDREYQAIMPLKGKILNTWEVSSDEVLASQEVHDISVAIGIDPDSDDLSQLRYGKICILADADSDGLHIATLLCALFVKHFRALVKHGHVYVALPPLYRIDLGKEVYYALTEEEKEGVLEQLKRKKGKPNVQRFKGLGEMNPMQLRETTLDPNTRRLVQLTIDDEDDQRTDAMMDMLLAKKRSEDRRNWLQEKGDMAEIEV", "sequence (P0AFI2 whole entry)": "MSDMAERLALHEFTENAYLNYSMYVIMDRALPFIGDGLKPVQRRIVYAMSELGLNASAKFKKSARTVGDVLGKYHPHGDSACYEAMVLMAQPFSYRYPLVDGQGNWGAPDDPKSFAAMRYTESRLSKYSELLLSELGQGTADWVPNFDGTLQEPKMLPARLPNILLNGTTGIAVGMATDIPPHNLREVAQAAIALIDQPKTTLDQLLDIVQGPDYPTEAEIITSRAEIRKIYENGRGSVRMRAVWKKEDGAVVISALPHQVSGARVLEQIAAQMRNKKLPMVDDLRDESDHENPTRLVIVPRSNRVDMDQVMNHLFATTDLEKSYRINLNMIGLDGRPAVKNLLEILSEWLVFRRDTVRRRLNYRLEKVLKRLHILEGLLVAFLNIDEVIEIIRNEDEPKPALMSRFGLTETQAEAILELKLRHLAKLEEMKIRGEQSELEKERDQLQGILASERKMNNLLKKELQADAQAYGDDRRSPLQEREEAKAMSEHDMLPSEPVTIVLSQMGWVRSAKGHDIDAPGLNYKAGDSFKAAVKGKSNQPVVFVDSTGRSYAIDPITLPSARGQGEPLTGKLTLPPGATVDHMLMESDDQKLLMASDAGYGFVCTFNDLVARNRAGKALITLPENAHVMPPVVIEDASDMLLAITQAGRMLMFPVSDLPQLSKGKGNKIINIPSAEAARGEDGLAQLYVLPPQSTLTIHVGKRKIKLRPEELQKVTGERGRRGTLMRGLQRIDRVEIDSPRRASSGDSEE", "test": "E. coli ParC/ParE ATPase inhibition assay (malachite green phosphate detection)", "format": "biochemical", "conditions": "ATPase activity of ParE subunit of reconstituted ParC/ParE tetramer; 0.16 mM ATP; 24 hours at room temperature", "excerpt": "The compounds of Formula (I) are of interest due to their antibacterial effects. The ability of the invention compounds disclosed herein to achieve an antibacterial effect may be evaluated with regard to their ability to inhibit the ParC enzyme of Escherichia coli using an assay based on the following protocol.\nThe assay utilizes the ATPase activity of the ParE subunit of reconstituted Escherichia coli ParC/ParE tetramer protein. Inhibition of ATPase activity may be monitored by reduced production of inorganic phosphate, a product of the ATPase reaction. Inorganic phosphate may be quantified using the ammonium molybdate/malachite green-based detection system. For determination of IC50 values, assays may be performed 384-well microtiter plates. Each well preferably contains a dilution range of the compound dissolved in DMSO. In addition, each well preferably contains: 20 mM Tris pH 8.0, 50 mM ammonium acetate, 0.16 mM ATP, 0.005% Brij-35, 8.0 mM magnesium chloride, 0.5 mM EDTA, 2.5% v/v glycerol, 5 mM dithiothreitol, 0.005 mg/mL sheared salmon sperm DNA, 0.5 nM E. coli ParC protein, 0.5 nM E. coli ParE protein. Final volume of assays is preferably 30 μL. Reactions may be incubated 24 hours at room temperature and then quenched with the addition of 45 μL malachite green reagent (Lanzetta, P. A., L. J. Alvarez, P. S. Reinach, and O. A. Candia (1979) Anal. Biochem. 100: 95-97) via a bulk reagent dispenser. Plates may be incubated 3-5 minutes at room temperature, and then absorbance at 650 nm may be measured using a Spectramax 384 plate reader.\nWhen tested in an assay based on the one described above, the inhibitory activity of the following Examples was measured at the indicated IC50.", "units": {"IC50": "nM"}, "values": [{"molecule": "COc1cnc2ccc(=O)n(CC(N)C3CCC(NCc4ccc5c(n4)NC(=O)CO5)CC3)c2c1", "note": "(racemic) [Example 1, Trans-6-((4-(1-amino-2-(7-methoxy-2-oxo-1,5-naphthyridin-1(2H)-yl)ethyl)cyclohexylamino)methyl)-2H-pyrido[3,2-b][1,4]oxazin-3(4H)-one]", "IC50": 20}, {"molecule": "N#Cc1ccc2ccc(=O)n(CC(N)C3CCC(NCc4ccc5c(n4)NC(=O)CO5)CC3)c2c1", "note": "(racemic) [Example 4, Trans-1-(2-amino-2-(4-((3-oxo-3,4-dihydro-2H-pyrido[3,2-b][1,4]oxazin-6-yl)methylamino)cyclohexyl)ethyl)-2-oxo-1,2-dihydroquinoline-7-carbonitrile]", "IC50": 9}, {"molecule": "N#Cc1ccc2ccc(=O)n(CC(N)C3CCC(NCc4ccc5c(n4)NC(=O)CS5)CC3)c2c1", "note": "(racemic) [Example 7, Trans-1-(2-amino-2-(4-((3-oxo-3,4-dihydro-2H-pyrido[3,2-b][1,4]thiazin-6-yl)methylamino)cyclohexyl)ethyl)-2-oxo-1,2-dihydroquinoline-7-carbonitrile]", "IC50": 12}, {"molecule": "COc1cnc2ccc(=O)n(CC(N)C3CCC(NCc4ncc5c(n4)NC(=O)CO5)CC3)c2c1", "note": "(racemic) [Example 8, Trans-2-((4-(1-amino-2-(7-methoxy-2-oxo-1,5-naphthyridin-1(2H)-yl)ethyl)cyclohexylamino)methyl)-6H-pyrimido[5,4-b][1,4]oxazin-7(8H)-one]", "IC50": 17}, {"molecule": "NC(Cn1c(=O)cnc2ccc(F)cc21)[C@H]1CC[C@H](NCc2ccc3c(n2)NC(=O)CO3)CC1", "note": "(single isomer, unassigned) [Example 5, Trans-6-((4-(1-amino-2-(7-fluoro-2-oxoquinoxalin-1(2H)-yl)ethyl)cyclohexylamino)methyl-2H-pyrido[3,2-b][1,4]oxazin-3(4H)-one, (+) enantiomer]", "IC50": 24}, {"molecule": "NC(Cn1c(=O)cnc2ccc(F)cc21)C1CCC(NCc2ncc3c(n2)NC(=O)CO3)CC1", "note": "(single isomer, unassigned) [Example 6, Trans-2-((4-(1-amino-2-(7-fluoro-2-oxoquinoxalin-1(2H)-yl)ethyl)cyclohexylamino)methyl-6H-pyrimido[5,4-b][1,4]oxazin-7(8H)-one, (+) enantiomer]", "IC50": 15}, {"molecule": "COc1cnc2ccc(=O)n(CC(N)[C@H]3CC[C@H](NCc4ccc5c(n4)NC(=O)CO5)CC3)c2c1", "note": "(single isomer, unassigned; enantiomer a) [Example 1(a), Trans-6-((4-(1-amino-2-(7-methoxy-2-oxo-1,5-naphthyridin-1(2H)-yl)ethyl)cyclohexylamino)methyl)-2H-pyrido[3,2-b][1,4]oxazin-3(4H)-one, enantiomer A]", "IC50": 2}, {"molecule": "COc1ccc2ncc(=O)n(CC(N)[C@H]3CC[C@H](NCc4ccc5c(n4)NC(=O)CO5)CC3)c2c1", "note": "(single isomer, unassigned; enantiomer a) [Example 2(a), Trans-6-((4-(1-amino-2-(7-methoxy-2-oxoquinoxalin-1(2H)-yl)ethyl)cyclohexylamino)methyl)-2H-pyrido[3,2-b][1,4]oxazin-3(4H)-one, enantiomer A]", "IC50": 16}, {"molecule": "COc1ccc2ncc(=O)n(CC(N)[C@H]3CC[C@H](NCc4ncc5c(n4)NC(=O)CO5)CC3)c2c1", "note": "(single isomer, unassigned; enantiomer a) [Example 3(a), Trans-2-((4-(1-amino-2-(7-methoxy-2-oxoquinoxalin-1(2H)-yl)ethyl)cyclohexylamino)methyl)-6H-pyrimido[5,4-b][1,4]oxazin-7(8H)-one, enantiomer A]", "IC50": 16}, {"molecule": "N#Cc1ccc2ccc(=O)n(CC(N)[C@H]3CC[C@H](NCc4ccc5c(n4)NC(=O)CO5)CC3)c2c1", "note": "(single isomer, unassigned; enantiomer a) [Example 4(a), Trans-1-(2-amino-2-(4-((3-oxo-3,4-dihydro-2H-pyrido[3,2-b][1,4]oxazin-6-yl)methylamino)cyclohexyl)ethyl)-2-oxo-1,2-dihydroquinoline-7-carbonitrile, enantiomer A]", "IC50": 32}, {"molecule": "NC(Cn1c(=O)ccc2ncc(Sc3ccccc3)cc21)C1CCC(NCc2ccc3c(n2)NC(=O)CO3)CC1", "note": "(single isomer, unassigned; enantiomer a) [Example 9, Trans-6-((4-(1-amino-2-(2-oxo-7-(phenylthio)-1,5-naphthyridin-1(2H)-yl)ethyl)cyclohexylamino)methyl)-2H-pyrido[3,2-b][1,4]oxazin-3(4H)-one, enantiomer A]", "IC50": 6}, {"molecule": "Cc1cc(=O)n(CC(N)C2CCC(NCc3ccc4c(n3)NC(=O)CO4)CC2)c2cc(F)ccc12", "note": "(single isomer, unassigned; enantiomer a) [Example 10, Trans-6-((4-(1-amino-2-(7-fluoro-4-methyl-2-oxoquinolin-1(2H)-yl)ethyl)cyclohexylamino)methyl)-2H-pyrido[3,2-b][1,4]oxazin-3(4H)-one, enantiomer A]", "IC50": 9}, {"molecule": "COc1cnc2ccc(=O)n(CC(N)[C@H]3CC[C@H](NCc4ccc5c(n4)NC(=O)CO5)CC3)c2c1", "note": "(single isomer, unassigned; enantiomer b) [Example 1(b), Trans-6-((4-(1-amino-2-(7-methoxy-2-oxo-1,5-naphthyridin-1(2H)-yl)ethyl)cyclohexylamino)methyl)-2H-pyrido[3,2-b][1,4]oxazin-3(4H)-one, enantiomer B]", "IC50": 33}, {"molecule": "COc1ccc2ncc(=O)n(CC(N)[C@H]3CC[C@H](NCc4ccc5c(n4)NC(=O)CO5)CC3)c2c1", "note": "(single isomer, unassigned; enantiomer b) [Example 2(b), Trans-6-((4-(1-amino-2-(7-methoxy-2-oxoquinoxalin-1(2H)-yl)ethyl)cyclohexylamino)methyl)-2H-pyrido[3,2-b][1,4]oxazin-3(4H)-one, enantiomer B]", "IC50": 4}, {"molecule": "COc1ccc2ncc(=O)n(CC(N)[C@H]3CC[C@H](NCc4ncc5c(n4)NC(=O)CO5)CC3)c2c1", "note": "(single isomer, unassigned; enantiomer b) [Example 3(b), Trans-2-((4-(1-amino-2-(7-methoxy-2-oxoquinoxalin-1(2H)-yl)ethyl)cyclohexylamino)methyl)-6H-pyrimido[5,4-b][1,4]oxazin-7(8H)-one, enantiomer B]", "IC50": 3}, {"molecule": "N#Cc1ccc2ccc(=O)n(CC(N)[C@H]3CC[C@H](NCc4ccc5c(n4)NC(=O)CO5)CC3)c2c1", "note": "(single isomer, unassigned; enantiomer b) [Example 4(b), Trans-1-(2-amino-2-(4-((3-oxo-3,4-dihydro-2H-pyrido[3,2-b][1,4]oxazin-6-yl)methylamino)cyclohexyl)ethyl)-2-oxo-1,2-dihydroquinoline-7-carbonitrile, enantiomer B]", "IC50": 4}, {"molecule": "N#Cc1ccc2ccc(=O)n(CC(N)[C@H]3CC[C@H](NCc4ccc5c(n4)NC(=O)CS5)CC3)c2c1", "note": "(single isomer, unassigned; enantiomer b) [Example 7(b), Trans-1-(2-amino-2-(4-((3-oxo-3,4-dihydro-2H-pyrido[3,2-b][1,4]thiazin-6-yl)methylamino)cyclohexyl)ethyl)-2-oxo-1,2-dihydroquinoline-7-carbonitrile, enantiomer B]", "IC50": 2}]}]}
